Laboratory results reported in patent publication US20090062294A1, “HETEROARYL-SUBSTITUTED UREA MODULATORS OF FATTY ACID AMIDE HYDROLASE” (priority 2007, published 2009).
pIC50: −log10 of the molar value. Where a name gives a salt, the structure may show the parent alone.

Columns and labels:
rat FAAH = target: T1, rat FAAH (Rattus norvegicus, UniProt P97612); assay: Assay Method 2: FAAH assay, 3H-anandamide hydrolysis in homogenate of SK-N-MC cells transfected with rat FAAH; format: biochemical; conditions: average of results, > = solubility limit or highest concentration tested
T1 sequence (P97612 1-579): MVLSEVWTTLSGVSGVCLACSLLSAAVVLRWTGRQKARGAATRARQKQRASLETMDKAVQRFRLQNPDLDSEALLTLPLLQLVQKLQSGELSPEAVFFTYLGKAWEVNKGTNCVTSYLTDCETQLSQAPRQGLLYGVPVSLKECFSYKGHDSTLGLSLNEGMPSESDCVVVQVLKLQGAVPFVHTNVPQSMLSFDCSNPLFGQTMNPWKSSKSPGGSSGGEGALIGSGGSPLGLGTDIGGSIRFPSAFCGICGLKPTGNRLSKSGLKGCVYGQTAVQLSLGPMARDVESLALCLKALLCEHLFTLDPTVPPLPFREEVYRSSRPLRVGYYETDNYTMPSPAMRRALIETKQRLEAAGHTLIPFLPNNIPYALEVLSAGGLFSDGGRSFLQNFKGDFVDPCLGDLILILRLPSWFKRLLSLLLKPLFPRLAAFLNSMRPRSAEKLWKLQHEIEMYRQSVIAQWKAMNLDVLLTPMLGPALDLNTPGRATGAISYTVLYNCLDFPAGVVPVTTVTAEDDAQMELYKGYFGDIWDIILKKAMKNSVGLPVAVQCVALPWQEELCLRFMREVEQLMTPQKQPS
Summary of the method: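 Homogenate of SK-N-MC cells stably transfected with rat FAAH cDNA (G418-selected clones) in pH 9 Tris/EDTA/glycerol/Triton buffer. Incubated with compound and 80 nM final [3H]-anandamide for 1 h at rt. Released [3H]-ethanolamine separated from substrate on activated charcoal filters and counted by scintillation.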

FAAH = target: T2, FAAH (Homo sapiens, UniProt O00519); assay: Assay Method 1: FAAH assay, 3H-anandamide hydrolysis in homogenate of T84 cells or SK-N-MC cells transfected with human FAAH; format: biochemical; conditions: average of results, > = solubility limit or highest concentration tested
T2 sequence (O00519 1-579): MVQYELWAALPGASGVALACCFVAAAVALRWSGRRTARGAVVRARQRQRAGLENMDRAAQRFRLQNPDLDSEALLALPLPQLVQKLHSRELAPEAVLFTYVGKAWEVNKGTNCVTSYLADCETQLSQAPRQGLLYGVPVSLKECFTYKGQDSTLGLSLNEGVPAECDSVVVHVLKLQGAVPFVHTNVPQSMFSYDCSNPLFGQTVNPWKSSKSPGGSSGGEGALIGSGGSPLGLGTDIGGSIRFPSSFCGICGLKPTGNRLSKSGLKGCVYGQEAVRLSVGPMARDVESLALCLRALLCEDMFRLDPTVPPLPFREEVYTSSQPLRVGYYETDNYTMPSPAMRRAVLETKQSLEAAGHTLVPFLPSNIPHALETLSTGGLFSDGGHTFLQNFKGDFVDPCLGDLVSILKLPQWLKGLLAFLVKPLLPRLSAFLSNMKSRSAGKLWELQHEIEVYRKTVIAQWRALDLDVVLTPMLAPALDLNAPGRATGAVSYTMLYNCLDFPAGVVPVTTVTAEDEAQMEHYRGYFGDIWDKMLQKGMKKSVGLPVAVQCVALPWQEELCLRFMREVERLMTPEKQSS
Summary of the method: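 Homogenates of T84 cells or of SK-N-MC cells stably transfected with human FAAH (G418-selected) were prepared in pH 9 Tris/EDTA/glycerol/Triton buffer. They were incubated with compound and 80 nM final ^3H-anandamide for 1 h at rt. Released ^3H-ethanolamine was separated on activated charcoal and counted by scintillation.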

Row | SMILES | pIC50 (rat FAAH) | pIC50 (FAAH)
1 | O=C(Nc1cnccn1)N1CCN(Cc2cccc(Oc3cccc(Br)c3)c2)CC1 [Example 240, 4-[3-(3-Bromophenoxy)benzyl]-N-pyrazin-2-ylpiperazine-1-carboxamide] | 7.10 | 7.70
2 | O=C(Nc1nn[nH]n1)N1CCN(Cc2cccc(Oc3ccc(F)c(C(F)(F)F)c3)c2)CC1 [Example 185, 4-{3-[4-Fluoro-3-(trifluoromethyl)phenoxy]benzyl}-N-2H-tetrazol-5-ylpiperazine-1-carboxamide] | 6.36 | 6.35
3 | O=C(Nc1noc2ccccc12)N1CCN(Cc2cccc(Oc3ccc4ncccc4c3)c2)CC1 [Example 114, N-1,2-Benzisoxazol-3-yl-4-[3-(quinolin-6-yloxy)benzyl]piperazine-1-carboxamide] | 7.70 | 7.70
4 | O=C(Nc1noc2ccccc12)N1CCN(Cc2cccc(C#Cc3ccc4c(c3)OCO4)c2)CC1 [Example 89, N-1,2-Benzisoxazol-3-yl-4-[3-(1,3-benzodioxol-5-ylethynyl)benzyl]-piperazine-1-carboxamide] | 6.26 | 6.19
5 | O=C(Nc1noc2ccccc12)N1CCN(Cc2cccc(OCc3ccccc3)c2)CC1 [Example 99, N-1,2-Benzisoxazol-3-yl-4-[3-(benzyloxy)benzyl]piperazine-1-carboxamide] | 6.59 | 7.80
6 | O=C(Nc1noc2ccccc12)N1CCN(Cc2cccc(Oc3ccc(Br)cc3)c2)CC1 [Example 32, 4-[3-(4-Bromo-phenoxy)-benzyl]-piperazine-1-carboxylic acid benzo[d]isoxazol-3-ylamide trifluoroacetic acid salt] | 8.40 | 8.52
7 | Cc1ccccc1C#Cc1cccc(CN2CCN(C(=O)Nc3noc4ccccc34)CC2)c1 [Example 63, 4-(3-o-Tolylethynyl-benzyl)-piperazine-1-carboxylic acid benzo[d]isoxazol-3-ylamide] | 7.11 | 7.15
8 | O=C(Nc1noc2ccccc12)N1CCN(Cc2cccc(C#Cc3ccccc3F)c2)CC1 [Example 66, N-1,2-Benzisoxazol-3-yl-4-{3-[(2-fluorophenyl)ethynyl]-benzyl}-piperazine-1-carboxamide] | 7.34 | 7.62
9 | O=C(Nc1noc2ccccc12)N1CCN(Cc2cccc(Oc3cccc(OC(F)(F)F)c3)c2)CC1 [Example 29, 4-[3-(3-Trifluoromethoxy-phenoxy)-benzyl]-piperazine-1-carboxylic acid benzo[d]isoxazol-3-ylamide trifluoroacetic acid salt] | 7.64 | 7.80
10 | O=C(Nc1nn[nH]n1)N1CCN(Cc2cccc(Oc3ccc4ccccc4c3)c2)CC1 [Example 166, 4-[3-(Naphthalen-2-yloxy)benzyl]-N-1H-tetrazol-5-ylpiperazine-1-carboxamide] | 8.15 | 7.89
11 | O=C(Nc1noc2ccccc12)N1CCN(Cc2cccc(C#Cc3ccccc3Br)c2)CC1 [Example 67, N-1,2-Benzisoxazol-3-yl-4-{3-[(2-bromophenyl)-ethynyl]benzyl}-piperazine-1-carboxamide] | 7.28 | 8.22
12 | O=C(Nc1cnccn1)N1CCN(Cc2cccc(Oc3ccc(OC(F)(F)F)cc3)c2)CC1 [Example 233, N-Pyrazin-2-yl-4-{3-[4-(trifluoromethoxy)phenoxy]benzyl}piperazine-1-carboxamide] | 6.85 | 8.00
13 | O=C(Nc1cccnn1)N1CCN(Cc2ccc3c(c2)OC(F)(F)O3)CC1 [Example 196, 4-[(2,2-Difluoro-1,3-benzodioxol-5-yl)methyl]-N-pyridazin-3-ylpiperazine-1-carboxamide] | 5.80 | 5.22
14 | O=C(Nc1noc2ccccc12)N1CCN(Cc2ccc(Cl)c(OC(F)(F)F)c2)CC1 [Example 105, N-1,2-Benzisoxazol-3-yl-4-[4-chloro-3-(trifluoromethoxy)benzyl]-piperazine-1-carboxamide] | 7.89 | 7.00
15 | O=C(Nc1ccon1)N1CCN(Cc2ccc(Cl)c(Cl)c2)CC1 [Example 160, 4-(3,4-Dichlorobenzyl)-N-isoxazol-3-ylpiperazine-1-carboxamide] | 5.10 | 5.52
16 | O=C(Nc1cnccn1)N1CCN(Cc2ccc3c(c2)OCO3)CC1 [Example 211, 4-(1,3-Benzodioxol-5-ylmethyl)-N-pyrazin-2-ylpiperazine-1-carboxamide] | < 5.00 | 5.52
17 | O=C(Nc1noc2ccccc12)N1CCN(Cc2cccc(Oc3ccc(OCC(F)(F)F)cc3)c2)CC1 [Example 35, 4-{3-[4-(2,2,2-Trifluoro-ethoxy)-phenoxy]-benzyl}-piperazine-1-carboxylic acid benzo[d]isoxazol-3-ylamide] | 7.70 | 8.30
18 | O=C(Nc1noc2ccccc12)N1CCN(Cc2cccc(Oc3ccc(F)c(F)c3)c2)CC1 [Example 33, 4-[3-(3,4-Difluoro-phenoxy)-benzyl]-piperazine-1-carboxylic acid benzo[d]isoxazol-3-ylamide] | 7.52 | 7.28
19 | O=C(Nc1ccc2[nH]nnc2c1)N1CCC(Cc2ccc3ccccc3c2)CC1 [Example 16, 4-Naphthalen-2-ylmethyl-piperidine-1-carboxylic acid (1H-benzotriazol-5-yl)-amide] | 8.30 | 7.41
20 | O=C(Nc1noc2ccccc12)N1CCN(Cc2ccc(OC(F)(F)F)cc2)CC1 [Example 103, N-1,2-Benzisoxazol-3-yl-4-[4-(trifluoromethoxy)benzyl]piperazine-1-carboxamide] | 6.96 | 6.92
21 | O=C(Nc1noc2ccccc12)N1CCN(Cc2cccc(C#CC3CC3)c2)CC1 [Example 76, N-1,2-Benzisoxazol-3-yl-4-[3-(cyclopropylethynyl)benzyl]-piperazine-1-carboxamide] | 6.40 | 8.00
22 | O=C(Nc1cccnn1)N1CCN(Cc2cnc3ccccc3c2)CC1 [Example 197, N-Pyridazin-3-yl-4-(quinolin-3-ylmethyl)piperazine-1-carboxamide] | 5.05 | 5.89
23 | O=C(Nc1noc2ccccc12)N1CCC(Cc2ccc(F)cc2)CC1 [Example 22, 4-(4-Fluoro-benzyl)-piperidine-1-carboxylic acid benzo[d]isoxazol-3-ylamide] | 7.11 | 6.97
24 | N#Cc1ccc(Oc2cccc(CN3CCN(C(=O)Nc4noc5ccccc45)CC3)c2)cc1 [Example 125, 4-[3-(4-Cyano-phenoxy)-benzyl]-piperazine-1-carboxylic acid benzo[d]isoxazol-3-ylamide] | 7.92 | 7.82
25 | C#Cc1cccc(CN2CCN(C(=O)Nc3noc4ccccc34)CC2)c1 [Example 68, 4-(3-Ethynyl-benzyl)-piperazine-1-carboxylic acid benzo[d]isoxazol-3-ylamide] | 6.50 | 7.80
26 | O=C(Nc1noc2ccccc12)N1CCN(Cc2ccc3c(c2)OC(F)(F)O3)CC1 [Example 1, 4-(2,2-Difluoro-benzo[1,3]dioxol-5-ylmethyl)-piperazine-1-carboxylic acid benzo[d]isoxazol-3-ylamide trifluoroacetic acid salt] | 6.47 | 6.99
27 | O=C(Nc1nn[nH]n1)N1CCN(Cc2cccc(Oc3ccc(F)c(F)c3)c2)CC1 [Example 169, 4-[3-(3,4-Difluorophenoxy)benzyl]-N-1H-tetrazol-5-ylpiperazine-1-carboxamide] | 6.22 | 6.21
28 | O=C(Nc1cnccn1)N1CCN(Cc2cccc(Oc3ccc4ccccc4c3)c2)CC1 [Example 228, 4-[3-(Naphthalen-2-yloxy)-benzyl]-piperazine-1-carboxylic acid pyrazin-2-ylamide] | 7.10 | 7.52
29 | O=C(Nc1noc2ccccc12)N1CCN(Cc2cccc(Oc3ccccn3)c2)CC1 [Example 96, N-1,2-Benzisoxazol-3-yl-4-[3-(pyridin-2-yloxy)benzyl]piperazine-1-carboxamide] | 5.96 | 6.70
